Experimental findings from PubChem BioAssay (NCI) are described below.

Test systems include A498 renal; CAKI-1 renal; LOX IMVI melanoma; MALME-3M melanoma; OVCAR-8 ovarian; SF-539 CNS; SNB-19 CNS; HL-60(TB) leukemia; NCI-H522 lung.
Test in all cases: NCI-60 cell line screen, 48 h

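These data come from cells grown in 96-well plates and exposed to compound for 48 hours at five concentrations. GI50 = concentration required for 50% inhibition of growth. TGI: total growth inhibition.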

On to `CCOC(=O)C(=[N+]=[N-])[Si](C)(C)C`, for which the TGI with A498 renal, in the assay on CAKI-1 renal, in the assay on LOX IMVI melanoma, with MALME-3M melanoma, with OVCAR-8 ovarian and in the assay on SF-539 CNS was above 100 µM each time. For the same compound, the TGI with SNB-19 CNS was above 100 µM.
For `COc1ccc(CC2NCCc3c2[nH]c2ccccc32)cc1` (centres undefined), the TGI in the assay with A498 renal is above 100 µM; in the assay on HL-60(TB) leukemia, 53.5 µM; in the assay on LOX IMVI melanoma it was above 100 µM; in the assay with OVCAR-8 ovarian it was above 100 µM; in the assay with SF-539 CNS it was above 100 µM; with SNB-19 CNS it was above 100 µM.
Regarding `C1=CC(N(c2ccccc2)C2C=CCCC2)CCC1` (centres undefined), the TGI in the assay on A498 renal, with CAKI-1 renal, in the assay on HL-60(TB) leukemia, in the assay with LOX IMVI melanoma, with NCI-H522 lung and in the assay on OVCAR-8 ovarian was above 100 µM throughout. In addition, in the assay on SF-539 CNS, the TGI is above 100 µM.
As for `Cc1cc(Cl)ccc1NC(=O)C(=O)Cc1nc2ccccc2o1`, the TGI in the assay with A498 renal, in the assay with CAKI-1 renal, in the assay on HL-60(TB) leukemia, in the assay on LOX IMVI melanoma, with MALME-3M melanoma and in the assay with NCI-H522 lung was above 100 µM throughout. Besides, the TGI in the assay with OVCAR-8 ovarian, in the assay on SF-539 CNS and with SNB-19 CNS was above 100 µM each time.
Turning to `[N-]=[N+]=N[C@H]1C[C@@H](CO)O[C@H]1n1cnc2c(N)ncnc21`, the TGI in the assay on CAKI-1 renal, in the assay on HL-60(TB) leukemia, in the assay on LOX IMVI melanoma, in the assay with MALME-3M melanoma, in the assay with NCI-H522 lung and with OVCAR-8 ovarian was above 100 µM each time. Moreover, the TGI in the assay with SF-539 CNS and with SNB-19 CNS was above 100 µM in each case.
In the case of `COc1ccc2c(c1)C(=O)c1c-2c(N2CCN(C(=O)CNCCNCCO)CC2)nc2ccccc12`, the GI50 in the assay on A498 renal is 8.32 µM; with CAKI-1 renal it was 12.8 µM; in the assay with LOX IMVI melanoma, 2.18 µM; with MALME-3M melanoma it was 2.55 µM; with NCI-H522 lung it was 1.81 µM; with OVCAR-8 ovarian, 10.2 µM. Further, the results for the GI50 in the assay with SF-539 CNS and with SNB-19 CNS were 3.08 µM and 11.1 µM, respectively. Further, the TGI stood at 20.2 µM in the assay on A498 renal; 35 µM in the assay on CAKI-1 renal; 4.72 µM with LOX IMVI melanoma; 5.97 µM with MALME-3M melanoma; 4.08 µM in the assay with NCI-H522 lung; 33.8 µM in the assay on OVCAR-8 ovarian. Besides, the values for the TGI in the assay on SF-539 CNS and in the assay on SNB-19 CNS were 10.6 µM and 28.4 µM, respectively.
As to `COc1ccc(/C=C2/N=C(c3ccccc3)N(c3c(C)n(C)n(-c4ccccc4)c3=O)C2=O)cc1OC`, the GI50 was above 100 µM with A498 renal; 37.1 µM in the assay with CAKI-1 renal; above 100 µM with HL-60(TB) leukemia; above 100 µM in the assay on LOX IMVI melanoma; above 100 µM with MALME-3M melanoma; above 100 µM in the assay with NCI-H522 lung. In addition, the GI50 in the assay with OVCAR-8 ovarian, in the assay with SF-539 CNS and in the assay with SNB-19 CNS was above 100 µM each time. Also, the TGI with A498 renal, in the assay with CAKI-1 renal, in the assay with HL-60(TB) leukemia, with LOX IMVI melanoma, with MALME-3M melanoma and in the assay on NCI-H522 lung was above 100 µM each time. The TGI in the assay with OVCAR-8 ovarian, with SF-539 CNS and with SNB-19 CNS was above 100 µM each time.
As for `CC12CP(=O)(c3ccccc3)CC1C2(Cl)Cl` (centres undefined), the TGI with LOX IMVI melanoma, in the assay with NCI-H522 lung, with OVCAR-8 ovarian, in the assay on SF-539 CNS and with SNB-19 CNS was above 100 µM in each case.
With `O=C(Nc1ccncc1)C(=O)c1cn(S(=O)(=O)c2ccc(F)cc2)c2ccccc12`, the GI50 in the assay on A498 renal was 6.57 µM; in the assay on CAKI-1 renal, 2.19 µM; in the assay on LOX IMVI melanoma, 2.22 µM; with MALME-3M melanoma it was 1.61 µM; in the assay with NCI-H522 lung, 0.823 µM; with OVCAR-8 ovarian it was 4.33 µM. Also, the GI50 in the assay with SF-539 CNS is 2.1 µM; in the assay with SNB-19 CNS, 19.5 µM. Further, the TGI is 63.2 µM in the assay with A498 renal; 10.9 µM in the assay on CAKI-1 renal; above 100 µM with LOX IMVI melanoma; 88.8 µM in the assay with MALME-3M melanoma; above 100 µM with NCI-H522 lung; above 100 µM in the assay on OVCAR-8 ovarian. Moreover, the TGI is 53.7 µM with SF-539 CNS and above 100 µM with SNB-19 CNS.
Regarding `C=C(C)[C@@H]1CC[C@]2(C)[C@H](CC=C3[C@@H]4CC(C)(C)CC[C@]4(C(N)=O)CC[C@]32C)[C@@]1(C)CCC#N`, the GI50 was 2.16 µM in the assay on A498 renal; 3.01 µM with CAKI-1 renal; 3.69 µM with LOX IMVI melanoma; 2.24 µM in the assay on MALME-3M melanoma; 3.07 µM in the assay on NCI-H522 lung; 5.24 µM in the assay on OVCAR-8 ovarian. Besides, the GI50 in the assay with SF-539 CNS is 3.04 µM; in the assay on SNB-19 CNS, 4.05 µM. In addition, the TGI in the assay with A498 renal was 5.32 µM; in the assay with CAKI-1 renal it was above 100 µM; in the assay on LOX IMVI melanoma, above 100 µM; in the assay on MALME-3M melanoma, 5.91 µM; with NCI-H522 lung, above 100 µM; with OVCAR-8 ovarian, above 100 µM. The values for the TGI with SF-539 CNS and with SNB-19 CNS were 13.6 µM and above 100 µM, respectively.
Take `O=C(CCc1n[nH]c(=S)o1)Nc1ccccc1C(F)(F)F`: the TGI in the assay with A498 renal, with CAKI-1 renal, in the assay on HL-60(TB) leukemia, with MALME-3M melanoma, in the assay with NCI-H522 lung and in the assay on OVCAR-8 ovarian was above 100 µM in each case. Further, the TGI in the assay on SF-539 CNS and in the assay with SNB-19 CNS was above 100 µM throughout.
Turning to `Cn1cc(-c2csc(-c3c[nH]c4ccc(F)cc34)n2)c2cnccc21`, the GI50 in the assay with A498 renal was 1.87 µM; in the assay with CAKI-1 renal it was 1.65 µM; in the assay on HL-60(TB) leukemia, 2.19 µM; with MALME-3M melanoma, 1.94 µM; in the assay on NCI-H522 lung, 1.79 µM; in the assay on SF-539 CNS it was 1.63 µM. The GI50 in the assay with SNB-19 CNS is 1.95 µM. Besides, the TGI with A498 renal amounted to 3.31 µM; in the assay with CAKI-1 renal, 3.05 µM; in the assay on HL-60(TB) leukemia it was 4.32 µM; with MALME-3M melanoma, 3.46 µM; in the assay on NCI-H522 lung it was 3.29 µM; with SF-539 CNS it was 3.04 µM. This compound came in with a TGI in the assay on SNB-19 CNS of 3.52 µM.
Turning to `[Cl][Hg][c]1cc[c]([Hg][Cl])o1`, the GI50 in the assay on A498 renal was 20 µM; in the assay on HL-60(TB) leukemia, 2.39 µM; with LOX IMVI melanoma, 0.707 µM; with MALME-3M melanoma, 1.68 µM; in the assay with NCI-H522 lung, 0.367 µM; in the assay on OVCAR-8 ovarian it was 3.39 µM. Also, the GI50 is 3.08 µM in the assay with SF-539 CNS and 3.44 µM in the assay on SNB-19 CNS. The TGI in the assay on A498 renal was found to be 34.2 µM; in the assay with HL-60(TB) leukemia it was 7.03 µM; in the assay with LOX IMVI melanoma, 4.27 µM; with MALME-3M melanoma it was 3.37 µM; in the assay with NCI-H522 lung, 1.69 µM; in the assay on OVCAR-8 ovarian, 34.6 µM. Besides, the TGI with SF-539 CNS is 13.8 µM; in the assay with SNB-19 CNS it was 15.8 µM.
`CC1c2c(Cl)nc3ccccc3c2Oc2c1c(Cl)nc1ccccc21`: the TGI in the assay with A498 renal, in the assay with HL-60(TB) leukemia, in the assay with LOX IMVI melanoma, with MALME-3M melanoma, in the assay on NCI-H522 lung and with OVCAR-8 ovarian was above 100 µM throughout. The TGI in the assay with SF-539 CNS and in the assay on SNB-19 CNS was above 100 µM throughout.
For `Cc1ccc(/C=C/C(=O)c2sc(-c3nc(C)c(C(=O)/C=C/c4ccc(C)cc4)s3)nc2C)cc1`, the TGI with A498 renal, in the assay on CAKI-1 renal, in the assay with HL-60(TB) leukemia, with LOX IMVI melanoma, with MALME-3M melanoma and with NCI-H522 lung was above 100 µM throughout. For the same compound, the TGI in the assay with OVCAR-8 ovarian and with SF-539 CNS was above 100 µM throughout.
With `O=C(c1ccccc1)c1cc2ccccc2o1`, the GI50 in the assay on A498 renal was 39.9 µM; with CAKI-1 renal, 67 µM; in the assay with LOX IMVI melanoma, 73.6 µM; in the assay on MALME-3M melanoma, above 100 µM; in the assay on NCI-H522 lung, 82.1 µM; with OVCAR-8 ovarian, above 100 µM. Also, the GI50 in the assay on SF-539 CNS and in the assay with SNB-19 CNS was above 100 µM each time. Besides, the TGI in the assay with A498 renal, with CAKI-1 renal, in the assay with LOX IMVI melanoma, in the assay on MALME-3M melanoma, in the assay on NCI-H522 lung and in the assay on OVCAR-8 ovarian was above 100 µM in each case. The TGI in the assay with SF-539 CNS and in the assay with SNB-19 CNS was above 100 µM in each case.
Consider `Cc1cc(N(CCC#N)CCC#N)ccc1N=Nc1ccc(C(=O)O)cc1`, for which the TGI in the assay with A498 renal, in the assay on CAKI-1 renal, in the assay with LOX IMVI melanoma, in the assay on MALME-3M melanoma, in the assay on NCI-H522 lung and in the assay with OVCAR-8 ovarian was above 100 µM throughout. Moreover, the TGI in the assay on SF-539 CNS is above 100 µM.
On to `O=C1/C(=C/c2ccc3c(c2)OCO3)SC2C=Nc3ccccc3N12` (centres undefined), for which the TGI in the assay on A498 renal, with CAKI-1 renal, in the assay on MALME-3M melanoma, with NCI-H522 lung, in the assay with OVCAR-8 ovarian and with SF-539 CNS was above 100 µM in each case. Also, the TGI with SNB-19 CNS was above 100 µM.
Turning to `NC(=O)C12CC3CC(CC(F)(C3)C1)C2`, the TGI with A498 renal, in the assay on HL-60(TB) leukemia, in the assay with LOX IMVI melanoma, with MALME-3M melanoma, in the assay on NCI-H522 lung and in the assay with OVCAR-8 ovarian was above 100 µM in each case. Besides, the TGI in the assay with SF-539 CNS is above 100 µM.
